Experimental findings from patent US7232912B2, “Indazole compounds, pharmaceutical compositions, and methods for mediating or inhibiting cell proliferation” (Agouron Pharmaceuticals, Inc., priority 2000, dated 2007) are described below.

The target in one series is CDK4/cyclin D3 (Homo sapiens, UniProt P11802). The experiment in a line: Inhibition of CDK4/Cyclin D Retinoblastoma Kinase Activity. The series is classed as biochemical. The conditions noted are these: apparent Ki. The method, boiled down: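 Human CDK4/cyclin D3 (full-length or cyclin D3 1–264), insect-cell expressed, at 5 or 50 nM with His-tagged Rb 386–928 substrate, 25 μM ATP plus [32P/33P]ATP, pH 7.4, 2% DMSO, 30 °C for 20 min; tight binders used 5 nM enzyme for 60 min. Filter-captured phospho-Rb quantified by phosphorimager. Apparent Ki from competitive or tight-binding inhibition fits.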

Another series has as its target T1, CDK2/cyclin A (Homo sapiens, UniProt P24941).
T1 construct: made in house; host or cells: CDK2: insect cells (baculovirus); cyclin A: E. coli
The experiment in a line: Inhibition of CDK2/Cyclin A Retinoblastoma Kinase Activity. The series is classed as biochemical. The conditions noted are these: apparent Ki. The method, boiled down: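 Baculovirus-expressed CDK2 complexed with proteolyzed cyclin A, at 150 nM or 5 nM, phosphorylating an Rb fragment with 25 µM [32/33P]ATP in HEPES pH 7.4, 2% DMSO. Reactions run 20 min at 30°C, EDTA-stopped, filter-captured; apparent Ki from competitive or tight-binding competitive fits.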

The target of another series is T2, human CHK1 (Homo sapiens, UniProt O14757).
T2 construct: C-terminally His-tagged full-length human CHK1 (FL-CHK1) was expressed using the baculovirus/insect cell system; made in house; host or cells: baculovirus/insect cells
T2 sequence (O14757 1-476): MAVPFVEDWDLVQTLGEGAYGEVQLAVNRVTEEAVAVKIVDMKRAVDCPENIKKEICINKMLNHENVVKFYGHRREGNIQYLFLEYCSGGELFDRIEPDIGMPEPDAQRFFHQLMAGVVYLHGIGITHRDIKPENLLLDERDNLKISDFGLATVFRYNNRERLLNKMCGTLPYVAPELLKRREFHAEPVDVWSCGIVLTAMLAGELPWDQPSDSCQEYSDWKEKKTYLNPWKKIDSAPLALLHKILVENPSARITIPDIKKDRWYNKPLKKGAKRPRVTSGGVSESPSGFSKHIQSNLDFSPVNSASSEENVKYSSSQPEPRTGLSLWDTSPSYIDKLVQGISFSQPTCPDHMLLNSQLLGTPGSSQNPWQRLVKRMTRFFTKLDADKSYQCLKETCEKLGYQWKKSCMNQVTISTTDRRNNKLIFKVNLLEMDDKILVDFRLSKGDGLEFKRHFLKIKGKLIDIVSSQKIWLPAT
The experiment in a line: CHK1 Assay (coupled spectrophotometric). It is filed as biochemical. The text has this:
C-terminally His-tagged full-length human CHK1 (FL-CHK1) was expressed using the baculovirus/insect cell system. It contains 6 histidine residues (6×His-tag) at the C-terminus of the 476 amino acid human CHK1. The protein was purified by conventional chromatographic techniques.
The production of ADP from ATP that accompanies phosphoryl transfer to the synthetic substrate peptide Syntide-2 ([…]) was coupled to oxidation of NADH using phosphoenolpyruvate (PEP) through the actions of pyruvate kinase (PK) and lactic dehydrogenase (LDH). The oxidation of NADH was monitored by following the decrease of absorbance at 340 nm (ε340=6.22 cm^−1 mM^−1) using a HP8452 spectrophotometer. Typical reaction solutions contained: […]; 0.15 mM NADH; 28 units of LDH/ml; 16 units of PK/ml; 3 mM DTT; 0.125 mM Syntide-2; 0.15 mM ATP; 25 mM MgCl2 in 50 mM TRIS, pH 7.5; and 400 mM NaCl. Assays were initiated with 10 nM of FL-CHK1. Ki values were determined by measuring initial enzyme activity in the presence of varying concentrations of test compounds. The data were analyzed using Enzyme Kinetic and Kaleidagraph software.

CDK4/cyclin D3, sequence (P11802 2-303 limits assumed): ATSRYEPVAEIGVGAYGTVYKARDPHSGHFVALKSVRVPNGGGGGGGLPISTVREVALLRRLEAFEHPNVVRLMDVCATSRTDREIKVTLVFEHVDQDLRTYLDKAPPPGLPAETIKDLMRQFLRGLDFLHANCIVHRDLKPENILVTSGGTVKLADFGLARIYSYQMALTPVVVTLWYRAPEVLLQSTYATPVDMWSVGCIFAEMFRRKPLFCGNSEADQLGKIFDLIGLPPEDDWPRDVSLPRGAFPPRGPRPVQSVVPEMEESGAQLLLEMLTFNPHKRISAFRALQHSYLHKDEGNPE
CDK4/cyclin D3, sequence (P30281 1-264 limits assumed, further chain): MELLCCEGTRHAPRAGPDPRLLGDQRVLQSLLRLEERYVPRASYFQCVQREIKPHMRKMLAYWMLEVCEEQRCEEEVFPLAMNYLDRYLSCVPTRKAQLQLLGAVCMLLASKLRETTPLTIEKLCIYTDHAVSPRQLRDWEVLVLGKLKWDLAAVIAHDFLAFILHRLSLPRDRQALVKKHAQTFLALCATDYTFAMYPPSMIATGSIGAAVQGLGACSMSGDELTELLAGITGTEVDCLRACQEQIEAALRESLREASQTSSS

One may read the inhibition as the percentage by which the read-out fell short of the control. High values mean strong suppression, low ones little suppression. In general, melting point refers to the temperature of the solid-liquid transition. `c1ccc(-c2ccc3[nH]nc(-c4nc5ccccc5[nH]4)c3c2)cc1` [Example 3, 3-(1H-Benzoimidazol-2-yl)-5-Phenyl-1H-indazole] came in with a melting point of 80 to 82 °C. The Ki on CDK4/cyclin D3 amounted to 370 nM. For the same compound, the Ki at CDK2/cyclin A amounted to 240 nM. The compound also registered an inhibition at 20 µM against human CHK1 of 75%.
